Reference: PubChem BioAssay AID1745844 (Carcinogenic Potency Database (CPDB), 2022)
Calls of active or inactive are those of the source. No rule for the calls is given here.

System: rodent lifetime carcinogenesis bioassay, tumor incidence TD50
Assay: chronic cancer bioassays in animals – CPDB, compiled studies (AID 1745844)

OO
TD50 (mouse, strain C57BL/6J, females, in drinking water, site: duodenum, lesion: adenoma, dosed 100 weeks, study length 100 weeks): 2010 mg/kg/day
TD50 (mouse, strain C57BL/6J, females, in drinking water, site: duodenum, lesion: carcinoma, dosed 100 weeks, study length 100 weeks): 7540 mg/kg/day
TD50 (mouse, strain C57BL/6J, females, in drinking water, site: duodenum, lesion: several types, types named in the paper, dosed 100 weeks, study length 100 weeks): 7830 mg/kg/day
TD50 (mouse, strain C57BL/6J, males, in drinking water, site: duodenum, lesion: adenoma, dosed 100 weeks, study length 100 weeks): 7350 mg/kg/day
TD50 (mouse, strain C57BL/6J, males, in drinking water, site: duodenum, lesion: carcinoma, dosed 100 weeks, study length 100 weeks): 15000 mg/kg/day
TD50 (mouse, strain C57BL/6J, males, in drinking water, site: duodenum, lesion: several types, types named in the paper, dosed 100 weeks, study length 100 weeks): 4800 mg/kg/day

CC(Oc1cc(Cl)c(Cl)cc1Cl)C(=O)O (stereo unspecified)
carcinogen call (mouse, strain B6AKF1, females, oral dosing, site: any site (literature study), lesion: several types, types named in the paper, dosed 76 weeks, study length 76 weeks): negative (inactive)
carcinogen call (mouse, strain B6AKF1, females, oral dosing, site: liver, lesion: hepatoma, dosed 76 weeks, study length 76 weeks): negative (inactive)
carcinogen call (mouse, strain B6AKF1, females, oral dosing, site: lung, lesion: adenoma, dosed 76 weeks, study length 76 weeks): negative (inactive)
carcinogen call (mouse, strain B6AKF1, males, oral dosing, site: any site (literature study), lesion: several types, types named in the paper, dosed 76 weeks, study length 76 weeks): negative (inactive)
carcinogen call (mouse, strain B6AKF1, males, oral dosing, site: liver, lesion: hepatoma, dosed 76 weeks, study length 76 weeks): negative (inactive)
carcinogen call (mouse, strain B6AKF1, males, oral dosing, site: lung, lesion: adenoma, dosed 76 weeks, study length 76 weeks): negative (inactive)
TD50 (mouse, strain B6C3F1, females, oral dosing, site: any site (literature study), lesion: several types, types named in the paper, dosed 76 weeks, study length 76 weeks): 52.6 mg/kg/day (inactive)
carcinogen call (mouse, strain B6C3F1, females, oral dosing, site: liver, lesion: hepatoma, dosed 76 weeks, study length 76 weeks): negative (inactive)
carcinogen call (mouse, strain B6C3F1, females, oral dosing, site: lung, lesion: several types, types named in the paper, dosed 76 weeks, study length 76 weeks): negative (inactive)
TD50 (mouse, strain B6C3F1, males, oral dosing, site: any site (literature study), lesion: several types, types named in the paper, dosed 76 weeks, study length 76 weeks): 9.07 mg/kg/day (inactive)
TD50 (mouse, strain B6C3F1, males, oral dosing, site: liver, lesion: hepatoma, dosed 76 weeks, study length 76 weeks): 16.6 mg/kg/day (inactive)
TD50 (mouse, strain B6C3F1, males, oral dosing, site: lung, lesion: adenoma, dosed 76 weeks, study length 76 weeks): 95.2 mg/kg/day (inactive)

Cn1c(N)nc2c3cccnc3ccc21
TD50 (monkey, strain Cynomolgus [Macaca fascicularis], both sexes, by gavage, site: any site (literature study), lesion: malignant tumor, dosed 485 weeks, study length 485 weeks): 0.374 mg/kg/day
TD50 (monkey, strain Cynomolgus [Macaca fascicularis], both sexes, by gavage, site: liver, lesion: hepatocellular carcinoma, dosed 485 weeks, study length 485 weeks): 0.374 mg/kg/day
TD50 (mouse, strain CDF1, females, in feed, site: forestomach, lesion: several types, types named in the paper, dosed 96 weeks, study length 96 weeks): 62.4 mg/kg/day
TD50 (mouse, strain CDF1, females, in feed, site: liver, lesion: hepatocellular carcinoma, dosed 96 weeks, study length 96 weeks): 24.1 mg/kg/day
TD50 (mouse, strain CDF1, females, in feed, site: liver, lesion: several types, types named in the paper, dosed 96 weeks, study length 96 weeks): 17.5 mg/kg/day
TD50 (mouse, strain CDF1, females, in feed, site: lung, lesion: several types, types named in the paper, dosed 96 weeks, study length 96 weeks): 67.9 mg/kg/day
TD50 (mouse, strain CDF1, males, in feed, site: forestomach, lesion: several types, types named in the paper, dosed 96 weeks, study length 96 weeks): 42.3 mg/kg/day
TD50 (mouse, strain CDF1, males, in feed, site: forestomach, lesion: squamous-cell carcinoma, dosed 96 weeks, study length 96 weeks): 153 mg/kg/day
TD50 (mouse, strain CDF1, males, in feed, site: liver, lesion: hepatocellular carcinoma, dosed 96 weeks, study length 96 weeks): 91.6 mg/kg/day
TD50 (mouse, strain CDF1, males, in feed, site: liver, lesion: several types, types named in the paper, dosed 96 weeks, study length 96 weeks): 48.6 mg/kg/day
TD50 (mouse, strain CDF1, males, in feed, site: lung, lesion: adenocarcinoma, dosed 96 weeks, study length 96 weeks): 60.2 mg/kg/day
TD50 (mouse, strain CDF1, males, in feed, site: lung, lesion: several types, types named in the paper, dosed 96 weeks, study length 96 weeks): 22.4 mg/kg/day
TD50 (rat, strain F344/DuCrj, females, in feed, site: Zymbal's gland, lesion: squamous-cell carcinoma, dosed 72 weeks, study length 72 weeks): 4.38 mg/kg/day
TD50 (rat, strain F344/DuCrj, females, in feed, site: clitoral gland, lesion: squamous-cell carcinoma, dosed 72 weeks, study length 72 weeks): 7.11 mg/kg/day
TD50 (rat, strain F344/DuCrj, females, in feed, site: large intestine, lesion: adenocarcinoma, dosed 72 weeks, study length 72 weeks): 19.3 mg/kg/day
TD50 (rat, strain F344/DuCrj, females, in feed, site: liver, lesion: hepatocellular carcinoma, dosed 72 weeks, study length 72 weeks): 8.24 mg/kg/day
TD50 (rat, strain F344/DuCrj, females, in feed, site: oral cavity, lesion: squamous-cell carcinoma, dosed 72 weeks, study length 72 weeks): 195 mg/kg/day
TD50 (rat, strain F344/DuCrj, females, in feed, site: skin, lesion: squamous-cell carcinoma, dosed 72 weeks, study length 72 weeks): 63.2 mg/kg/day
TD50 (rat, strain F344/DuCrj, females, in feed, site: small intestine, lesion: adenocarcinoma, dosed 72 weeks, study length 72 weeks): 195 mg/kg/day
TD50 (rat, strain F344/DuCrj, males, in feed, site: Zymbal's gland, lesion: squamous-cell carcinoma, dosed 55 weeks, study length 55 weeks): 0.999 mg/kg/day
TD50 (rat, strain F344/DuCrj, males, in feed, site: large intestine, lesion: adenocarcinoma, dosed 55 weeks, study length 55 weeks): 2.34 mg/kg/day
TD50 (rat, strain F344/DuCrj, males, in feed, site: liver, lesion: hepatocellular carcinoma, dosed 55 weeks, study length 55 weeks): 2.08 mg/kg/day
TD50 (rat, strain F344/DuCrj, males, in feed, site: oral cavity, lesion: squamous-cell carcinoma, dosed 55 weeks, study length 55 weeks): 44.8 mg/kg/day
TD50 (rat, strain F344/DuCrj, males, in feed, site: skin, lesion: squamous-cell carcinoma, dosed 55 weeks, study length 55 weeks): 4.16 mg/kg/day
TD50 (rat, strain F344/DuCrj, males, in feed, site: small intestine, lesion: adenocarcinoma, dosed 55 weeks, study length 55 weeks): 6.45 mg/kg/day
TD50 (rat, strain Fischer 344, females, in feed, site: Zymbal's gland, lesion: one or several types, types not named, dosed 53 weeks, study length 78 weeks): 2.26 mg/kg/day
TD50 (rat, strain Fischer 344, females, in feed, site: liver, lesion: hepatocellular carcinoma, dosed 53 weeks, study length 78 weeks): 5.06 mg/kg/day
TD50 (rat, strain Fischer 344, females, in feed, site: lung, lesion: adenoma, dosed 53 weeks, study length 78 weeks): 16.2 mg/kg/day
TD50 (rat, strain Fischer 344, females, in feed, site: mammary gland, lesion: one or several types, types not named, dosed 53 weeks, study length 78 weeks): 3.52 mg/kg/day
TD50 (rat, strain Fischer 344, females, in feed, site: preputial gland, lesion: one or several types, types not named, dosed 53 weeks, study length 78 weeks): 3.19 mg/kg/day
TD50 (rat, strain Fischer 344, females, in feed, site: sebaceous gland, lesion: several types, types named in the paper, dosed 53 weeks, study length 78 weeks): 32.9 mg/kg/day
TD50 (rat, strain Fischer 344, males, by gavage, site: Zymbal's gland, lesion: squamous-cell carcinoma, dosed 35 weeks, study length 52 weeks): 0.287 mg/kg/day
TD50 (rat, strain Fischer 344, males, by gavage, site: any site (literature study), lesion: several types, types named in the paper, dosed 35 weeks, study length 52 weeks): 0.287 mg/kg/day
TD50 (rat, strain Fischer 344, males, by gavage, site: colon, lesion: adenocarcinoma, dosed 35 weeks, study length 52 weeks): 0.803 mg/kg/day
TD50 (rat, strain Fischer 344, males, by gavage, site: liver, lesion: hepatocellular carcinoma, dosed 35 weeks, study length 52 weeks): 0.579 mg/kg/day
TD50 (rat, strain Fischer 344, males, by gavage, site: skin, lesion: squamous-cell carcinoma, dosed 35 weeks, study length 52 weeks): 0.579 mg/kg/day
TD50 (rat, strain Fischer 344, males, by gavage, site: small intestine, lesion: adenocarcinoma, dosed 35 weeks, study length 52 weeks): 1.55 mg/kg/day
TD50 (rat, strain Fischer 344, males, in feed, site: Zymbal's gland, lesion: one or several types, types not named, dosed 53 weeks, study length 63 weeks): 1.2 mg/kg/day
TD50 (rat, strain Fischer 344, males, in feed, site: colon, lesion: one or several types, types not named, dosed 53 weeks, study length 63 weeks): 10.5 mg/kg/day
TD50 (rat, strain Fischer 344, males, in feed, site: liver, lesion: hepatocellular carcinoma, dosed 53 weeks, study length 63 weeks): 10.5 mg/kg/day
TD50 (rat, strain Fischer 344, males, in feed, site: lung, lesion: several types, types named in the paper, dosed 53 weeks, study length 63 weeks): 27.1 mg/kg/day
TD50 (rat, strain Fischer 344, males, in feed, site: preputial gland, lesion: one or several types, types not named, dosed 53 weeks, study length 63 weeks): 6.87 mg/kg/day
TD50 (rat, strain Fischer 344, males, in feed, site: sebaceous gland, lesion: several types, types named in the paper, dosed 53 weeks, study length 63 weeks): 0.998 mg/kg/day

COc1cc(CNC(=O)CCCC/C=C/C(C)C)ccc1O
carcinogen call (mouse, strain B6C3F1, females, in feed, site: any site (literature study), lesion: several types, types named in the paper, dosed 79 weeks, study length 83 weeks): negative (inactive)
carcinogen call (mouse, strain B6C3F1, females, in feed, site: liver, lesion: several types, types named in the paper, dosed 79 weeks, study length 83 weeks): negative (inactive)
carcinogen call (mouse, strain B6C3F1, females, in feed, site: lung, lesion: adenoma, dosed 79 weeks, study length 83 weeks): negative (inactive)
TD50 (mouse, strain B6C3F1, males, in feed, site: any site (literature study), lesion: several types, types named in the paper, dosed 79 weeks, study length 83 weeks): 2040 mg/kg/day (inactive)
carcinogen call (mouse, strain B6C3F1, males, in feed, site: liver, lesion: several types, types named in the paper, dosed 79 weeks, study length 83 weeks): negative (inactive)
TD50 (mouse, strain B6C3F1, males, in feed, site: lung, lesion: adenoma, dosed 79 weeks, study length 83 weeks): 16100 mg/kg/day (inactive)
TD50 (mouse, strain Swiss albino, females, in feed, site: cecum, lesion: polypoid adenoma, dosed 152 weeks, study length 152 weeks): 167 mg/kg/day
TD50 (mouse, strain Swiss albino, females, in feed, site: duodenum, lesion: adenocarcinoma, dosed 152 weeks, study length 152 weeks): 2310 mg/kg/day
TD50 (mouse, strain Swiss albino, females, in feed, site: lung, lesion: adenoma, dosed 152 weeks, study length 152 weeks): 225 mg/kg/day
TD50 (mouse, strain Swiss albino, females, in feed, site: lung, lesion: several types, types named in the paper, dosed 152 weeks, study length 152 weeks): 1080 mg/kg/day
carcinogen call (mouse, strain Swiss albino, males, in feed, site: cecum, lesion: polypoid adenoma, dosed 124 weeks, study length 124 weeks): positive
TD50 (mouse, strain Swiss albino, males, in feed, site: duodenum, lesion: several types, types named in the paper, dosed 124 weeks, study length 124 weeks): 404 mg/kg/day

C1CCCNCCC1
TD50 (rat, strain MRC, females, in drinking water, site: any site (literature study), lesion: several types, types named in the paper, dosed 75 weeks, study length 104 weeks): 15.8 mg/kg/day
TD50 (rat, strain MRC, males, in drinking water, site: any site (literature study), lesion: several types, types named in the paper, dosed 75 weeks, study length 104 weeks): 6.37 mg/kg/day

CCCC/C=N/N(C)C=O
TD50 (mouse, strain Swiss albino, females, by gavage, site: liver, lesion: hepatoma, benign, dosed 52 weeks, study length 144 weeks): 11.8 mg/kg/day
TD50 (mouse, strain Swiss albino, females, by gavage, site: lung, lesion: adenocarcinoma, dosed 52 weeks, study length 144 weeks): 9.29 mg/kg/day
TD50 (mouse, strain Swiss albino, females, by gavage, site: lung, lesion: adenoma, dosed 52 weeks, study length 144 weeks): 5.64 mg/kg/day
TD50 (mouse, strain Swiss albino, females, by gavage, site: lung, lesion: several types, types named in the paper, dosed 52 weeks, study length 144 weeks): 3.12 mg/kg/day
TD50 (mouse, strain Swiss albino, males, by gavage, site: liver, lesion: hepatoma, dosed 52 weeks, study length 134 weeks): 33.1 mg/kg/day
TD50 (mouse, strain Swiss albino, males, by gavage, site: lung, lesion: adenocarcinoma, dosed 52 weeks, study length 134 weeks): 11 mg/kg/day
TD50 (mouse, strain Swiss albino, males, by gavage, site: lung, lesion: adenoma, dosed 52 weeks, study length 134 weeks): 5.52 mg/kg/day
TD50 (mouse, strain Swiss albino, males, by gavage, site: lung, lesion: several types, types named in the paper, dosed 52 weeks, study length 134 weeks): 3.79 mg/kg/day
TD50 (mouse, strain Swiss albino, males, by gavage, site: preputial gland, lesion: several types, types named in the paper, dosed 52 weeks, study length 134 weeks): 16.2 mg/kg/day
TD50 (mouse, strain Swiss albino, males, by gavage, site: preputial gland, lesion: squamous-cell carcinoma, dosed 52 weeks, study length 134 weeks): 19.8 mg/kg/day
TD50 (mouse, strain Swiss albino, males, by gavage, site: preputial gland, lesion: squamous-cell papilloma, dosed 52 weeks, study length 134 weeks): 106 mg/kg/day
